This is an account of results in article PMC10053440, “Semi-Synthesis and Biological Evaluation of 25(R)-26-Acetoxy-3β,5α-Dihydroxycholest-6-One” (Marine Drugs, 2023).

For data set [1], the system named is human leukemia cell line K-562. Conditions: cited from earlier work.
Data set [2] has as its system respiratory syncytial virus (RSV). The data set can be described thus: Anti-RSV activity assay (RT-qPCR). Type of data set: cell-based. Conditions: human respiratory syncytial virus, HEp-2 cells, mean ± SEM, read-out: Inhibition rate (%) of RSV replication. An excerpt:
Remdesivir was selected and evaluated as a positive control.
(Quantitative PCR measures a nucleic acid by following its amplification.)

Data set [3] concerns MCF7 (human breast cancer cell). Nature of the data set: CCK-8 anti-proliferation assay, MCF7. It is filed as cell-based. Conditions: at 20 µM, 48 h, mean ± SEM, read-out: Inhibition Rate (%). The method, then:
(§1) One concentration was set for each sample during preliminary screening and three multiple holes were set for each concentration. Eight concentration gradients were set for each sample for IC50 determination and three multiple holes were set for each concentration. […] The absorbance was measured at 450 nm with an enzyme labeling instrument and the original data and results were recorded. […] Doxorubicin was used as a positive control. All the cancer cell lines were obtained from Qingdao AC biotechnology Co., LTD, Qingdao, China.
For orientation: Tetrazolium assays rely on reduction of a dye to a coloured formazan, in cell work by metabolically active cells.

Data set [4] relates to HOS (human osteosarcoma cell). Nature of the data set: CCK-8 anti-proliferation assay, HOS. It is filed as cell-based. Conditions: at 20 µM, 48 h, mean ± SEM, read-out: Inhibition Rate (%). The method, then: as §1
For data set [5], the system named is A-375 (human melanoma cell). Nature of the data set: CCK-8 anti-proliferation assay, A-375. It is filed as cell-based. Conditions: at 20 µM, 48 h, mean ± SEM, read-out: Inhibition Rate (%). The method, then:
as §1

Data set [6] has as its system PATU8988T (human pancreatic cancer cell). The data set can be described thus: CCK-8 anti-proliferation assay, PATU8988T. It is filed as cell-based. The settings on record: PaTu 8988t, at 20 µM, 48 h, mean ± SEM, read-out: Inhibition Rate (%). As for the experimental part: as §1
In data set [7] the test system is CAL-62 (human thyroid anaplastic carcinoma cell). Nature of the data set: CCK-8 anti-proliferation assay, CAL-62. It is filed as cell-based. Conditions: at 20 µM, 48 h, mean ± SEM, read-out: Inhibition Rate (%). As for the experimental part: as §1
The test system of data set [8] is DU145 (human prostate carcinoma cell). Nature of the data set: CCK-8 anti-proliferation assay, DU145. Conditions: DU-145, at 20 µM, 48 h, mean ± SEM, read-out: Inhibition Rate (%). Type of data set: cell-based. The method, then: as §1
Data set [9] deals with HepG2 (human liver carcinoma cell). Nature of the data set: CCK-8 anti-proliferation assay, HepG2. It is filed as cell-based. The method, then:
as §1

The subject of data set [10] is L-02 (human hepatocyte cell). Nature of the data set: CCK-8 anti-proliferation assay, L-02. Type of data set: cell-based. The settings on record: L-02 normal liver cells, at 20 µM, 48 h, mean ± SEM, read-out: Inhibition Rate (%). As for the experimental part: as §1
The subject of data set [11] is 786-O (human renal cancer cell). The data set can be described thus: CCK-8 anti-proliferation assay, 786-O. Type of data set: cell-based. The settings on record: 786-0, at 20 µM, 48 h, mean ± SEM, read-out: Inhibition Rate (%). As for the experimental part: as §1
Data set [12] deals with GBC-SD (human gallbladder carcinoma cell). The data set can be described thus: CCK-8 anti-proliferation assay, GBC-SD. The settings on record: at 20 µM, 48 h, mean ± SEM, read-out: Inhibition Rate (%). Type of data set: cell-based. The method, then: as §1
For data set [13], the system named is 5637 (HTB-9) cells. The data set can be described thus: Apoptosis assay, Annexin V-FITC/PI flow cytometry. Type of data set: cell-based, human. Conditions: 48 h. As for the experimental part: Next, the apoptosis study of compound ([…])-5 was investigated against 5637 (HTB-9) cells based on a standard flow cytometry technique and assessed by Annexin V-FITC/PI staining. […] The percent of apoptosis in cells was assayed according to the instructions (Vazyme, A211). 5637 (HTB-9) cells were seeded in 6-well plates at 2 × 10^5 cells/well overnight and treated with compound ([…])-5 at various concentrations for 48 h. Trypsinization of the cells occurred without EDTA and they were collected in tubes and suspended in 100 μL ice-cold 1 × binding buffer after being washed twice with PBS. Cells were stained with PI and FITC Annexin V for 10 min at room temperature following the instructions of the Annexin V FITC/PI kit (Vazyme Biotech, Nanjing, China). Next, 200 μL ice-cold 1 × binding buffer was added. The result was measured by flow cytometry (MoFlo XDP, Beckman, Pasadena, CA, USA). For each condition, a minimum of 10,000 cells were analyzed. Triplicate experiments were performed independently.
On the technique in general: A flow cytometer gives signals particle by particle.

Data set [14] concerns HeLa (human cervical cancer cell). The data set can be described thus: CCK-8 anti-proliferation assay, HeLa. Conditions: at 20 µM, 48 h, mean ± SEM, read-out: Inhibition Rate (%). It is filed as cell-based. The method, then:
as §1

For data set [15], the system named is K-562 (human myeloid leukemia cell). The data set can be described thus: CCK-8 anti-proliferation assay, K-562. It is filed as cell-based. Conditions: 48 h, mean ± SEM. The method, then:
as §1

Data set [16] relates to MKN-45 (human gastric cancer cell). The data set can be described thus: CCK-8 anti-proliferation assay, MKN-45. Conditions: at 20 µM, 48 h, mean ± SEM, read-out: Inhibition Rate (%). Type of data set: cell-based. As for the experimental part:
as §1

In data set [17] the test system is SF126 (human glioblastoma cell). The data set can be described thus: CCK-8 anti-proliferation assay, SF126. Conditions: SF-126, at 20 µM, 48 h, mean ± SEM, read-out: Inhibition Rate (%). It is filed as cell-based. As for the experimental part: as §1
The subject of data set [18] is 5637 (HTB-9) (human bladder cancer cell). The data set can be described thus: CCK-8 anti-proliferation assay, 5637 (HTB-9). It is filed as cell-based. As for the experimental part:
as §1

Data set [19] deals with A-673 (Ewing sarcoma). The data set can be described thus: CCK-8 anti-proliferation assay, A-673. Type of data set: cell-based. The settings on record: Homo sapiens, A673, at 20 µM, 48 h, mean ± SEM, read-out: Inhibition Rate (%). The method, then: as §1
Data set [20] relates to A549 (human lung adenocarcinoma cell). Nature of the data set: CCK-8 anti-proliferation assay, A549. It is filed as cell-based. Conditions: A549, 48 h, at 20 µM, mean ± SEM, read-out: Inhibition Rate (%). As for the experimental part: as §1
For data set [21], the system named is HCT 116 (human colorectal cancer cell). The data set can be described thus: CCK-8 anti-proliferation assay, HCT 116. It is filed as cell-based. Conditions: at 20 µM, 48 h, mean ± SEM, read-out: Inhibition Rate (%). The method, then: as §1
The subject of data set [22] is TE-1 (human esophageal cancer cell). The data set can be described thus: CCK-8 anti-proliferation assay, TE-1. Type of data set: cell-based. The settings on record: at 20 µM, 48 h, mean ± SEM, read-out: Inhibition Rate (%). As for the experimental part:
as §1

The subject of data set [23] is 293T (human embryonic kidney cell). The data set can be described thus: CCK-8 anti-proliferation assay, 293T. Type of data set: cell-based. Conditions: HEK-293T, at 20 µM, 48 h, mean ± SEM, read-out: Inhibition Rate (%). The method, then: as §1

≈ marks a conversion by molar mass, not a printed value.

One may read the LC50 as the concentration lethal to half of the exposed cells or organisms. A word on the inhibition: it is the relative decrease from the control value, in per cent. Consider `CC(=O)OCC(C)CCC[C@@H](C)[C@H]1CC[C@H]2[C@@H]3CC(=O)[C@@]4(O)C[C@@H](O)CC[C@]4(C)[C@H]3CC[C@]12C` (stereo partly drawn) [compound 5], for which the LC50 in data set [1] was 0.9 µg/mL (≈ 1.89 µM). Moreover, in data set [2], the inhibition at 10 µM was found to be 18.3 ± 3.8%.

By IC50 is commonly meant the midpoint of a concentration-inhibition curve. Consider `CC(=O)OC[C@H](C)CCC[C@@H](C)[C@H]1CC[C@H]2[C@@H]3CC(=O)[C@@]4(O)C[C@@H](O)CC[C@]4(C)[C@H]3CC[C@]12C` [compound (25R)-5, (2R,6R)-6-((3S,5R,8S,9S,10R,13R,14S,17R)-3,5-Dihydroxy-10,13-Dimethyl-6-Oxohexadecahydro-1H-Cyclopenta[a]Phenanthren-17-yl)-2-Methylheptyl Acetate], for which the inhibition at 20 µM in data set [3] was 19.3 ± 2.1%; in [4] it was 22.2 ± 1.1%; in [5], 76.3 ± 1.7%; in [6], 65.9 ± 4.2%; in data set [7] it was 18.2 ± 1.9%; in data set [8] it was 12.2 ± 2%. Further, the inhibition at 20 µM is 66.8 ± 2.1% in data set [9] (at 20 µM, 48 h, mean ± SEM, read-out: Inhibition Rate (%)); -4.9 ± 3.4% in [10]; 65.3 ± 0.5% in [11]; 28.1 ± 1.5% in data set [12]; 22.7 ± 1.2% in data set [14]; 17.1 ± 2.8% in data set [15] (Homo sapiens, K562, at 20 µM, read-out: Inhibition Rate (%)). Besides, the inhibition at 20 µM in [16] is 61.1 ± 1.4%; in data set [17] it was 28.1 ± 0.5%; in data set [18] (5637 (HTB-9), at 20 µM, 48 h, mean ± SEM, read-out: Inhibition Rate (%)), 64.7 ± 3.4%; in data set [19], 49.4 ± 1.4%; in data set [20], at most 50%; in [21], 59.3 ± 3.8%. In addition, the figures for the inhibition at 20 µM in [22] and in data set [23] were 29.5 ± 2.2% and 26.2 ± 1.5%, respectively. The IC50 in data set [9] (CCK-8, 48 h, read-out: IC50 against HepG2 cells) was 15.5 µM; in data set [18] (CCK-8, 48 h, read-out: IC50 against 5637 (HTB-9) cells), 4.8 µM. In addition, the “induction of apoptosis (early-stage Annexin V-FITC+/PI- and late-stage Annexin V-FITC+/PI+)” value in data set [13] is on record as “induced apoptotic cell death in a dose-dependent manner”. Also, the inhibition at 10 µM in data set [2] came out at 29.4 ± 7.1%. Besides, the “Inhibition Rate (%)” value in data set [15] (at 20 µM) was “weak inhibition activity”.
